Where a name gives a salt, the structure may show the parent alone.
Legend:
[1] = Water sorption analysis (0 % RH to 95 % RH, 25°C); type: physicochemical; conditions: for release of crystal water at 0 % RH: nitrogen flow rate 200 ml/min; for RH at which water sorption started: two 11-step circles from 0 % RH to 95 % RH
Experimental: An amount of 20 mg of zipasidone hydrogensulfate dihydrate was exposed to a watersorption analysis (Surface Measurement Systems Ltd., London, UK; two complete 11-step circles from 0 % RH to 95 % RH at the temperature 25°C and nitrogen flow rate 200 ml/min; minimal retention time at the step when dm/dt < 0.002% was 10 minutes and maximal 360 minutes) and compared to the same test of Ziprasidone hydrochloride monohydrate.

[2] = Solubility in water (pH 6.8) + 2 % SDS; type: physicochemical; conditions: water + 2 % SDS, aqueous with cosolvent or surfactant or cyclodextrin; water (pH 6.8) + 2 % SDS at room temperature

Compound | release of crystal water at 0 % RH [1] | RH at which water sorption started [1] [% RH] | solubility [2] [µg/mL] | stability to hydratation ([1]; compared with Ziprasidone hydrochloride salt)
O=C1Cc2cc(CCN3CCN(c4nsc5ccccc45)CC3)c(Cl)cc2N1 [Ziprasidone hydrochloride monohydrate, reference compound] | release crystal water | 30 | – | –
O.O.O=C1Cc2cc(CCN3CCN(c4nsc5ccccc45)CC3)c(Cl)cc2N1.O=S(=O)(O)O [Ziprasidone hydrogensulfate dihydrate, 5-[2-[4-(1,2-benzisothiazol-3-yl) -1-piperazinyl]ethyl] -6-chloro-1,3-dihydro-2H-indol-2-one hydrogensulfate dihydrate] | does not release crystal water | 50 | 360 | more stable to hydratation

Reference: patent publication EP2046786B1, “POLYMORPHIC FORMS OF ZIPRASIDONE SULFATES” (KRKA, priority 2006, dated 2008)
